Like-named read-outs stand apart in the source and are kept apart here.

Test [1] concerns human colon cancer SW-480 cells. Briefly: MTS cytotoxicity assay, SW480. It counts as cell-based. The conditions noted are these: Table 1, SW480. The method, then: (§1) It had better inhibition against lung cancer cell lines than against other cancer cell lines (Table 1). Thus, the next bioactivity-guided separations were conducted according to the cytotoxicities of the fractions against lung cancer cell lines (A-549, NCI-H520, and SPC-A-1), as well as normal BEAS-2B cells and paclitaxel-resistant lung cancer A549/Taxol cells.
(§2) The cytotoxicity activities were evaluated by MTS assay as previously described.
(In general: Tetrazolium dyes change colour on reduction, which living cells bring about.)

Test [2] has as its system human ovarian carcinoma SK-OV-3 cells. Briefly: MTS cytotoxicity assay, SK-OV-3. The conditions noted are these: Table 1, SK-OV-3. The format is cell-based. The method, then:
as §1, §2

The subject of test [3] is human large cell lung carcinoma NCI-H460 cells. Briefly: MTS cytotoxicity assay, NCI-H460. It counts as cell-based. The conditions noted are these: Table 1, NCI-H460. The method, then:
as §1, §2

The subject of test [4] is human T-cell leukemia MT4 cells. The test is described as follows: MTS cytotoxicity assay, MT4. The format is cell-based. Conditions: Table 1, MT4. The method, then: as §1, §2
For test [5], the system named is human breast cancer MDA-MB-231 cells. The test is described as follows: MTS cytotoxicity assay, MDA-MB-231. It counts as cell-based. The conditions noted are these: Table 1, MDA-MB-231. The method, then: as §1, §2
Test [6] relates to human breast cancer MCF-7 cells. The test is described as follows: MTS cytotoxicity assay, MCF-7. The format is cell-based. Conditions: Table 1, MCF-7. The method, then: as §1, §2
For test [7], the system named is human lung squamous cell carcinoma NCI-H520 cells. The test is described as follows: MTS cytotoxicity assay, NCI-H520. It counts as cell-based. The protocol:
as §1, §2

In test [8] the test system is human leukemia HL-60 cells. Briefly: MTS cytotoxicity assay, HL-60. It counts as cell-based. Conditions: Table 1, HL-60. The protocol:
as §1, §2

Test [9] concerns paclitaxel-resistant A549 (A549/Taxol) cells. The test is described as follows: MTS cytotoxicity assay, A549/Taxol. The format is cell-based, human. The method, then:
as §1, §2

Test [10] deals with human small cell lung cancer NCI-H446 cells. The test is described as follows: MTS cytotoxicity assay, NCI-H446. The format is cell-based. Conditions: Table 1, NCI-H446. The protocol:
as §1, §2

Test [11] relates to human neuroblastoma SH-SY5Y cells. Briefly: MTS cytotoxicity assay, SH-SY5Y. The format is cell-based. The conditions noted are these: Table 1, SH-SY5Y. The method, then:
as §1, §2

For test [12], the system named is human lung adenocarcinoma A549 cells. Briefly: MTS cytotoxicity assay, A549. It counts as cell-based. The protocol: as §1, §2
The subject of test [13] is human hepatoma SMMC-7721 cells. Briefly: MTS cytotoxicity assay, SMMC-7721. It counts as cell-based. Conditions: Table 1, SMMC-7721.
In test [14] the test system is human lung adenocarcinoma SPC-A-1 cells. Briefly: MTS cytotoxicity assay, SPC-A-1. The format is cell-based. The protocol: as §1, §2
Test [15] deals with human cervical cancer HeLa cells. Briefly: MTS cytotoxicity assay, HeLa. Conditions: Table 1, HeLa. The format is cell-based. The protocol:
as §1, §2

The subject of test [16] is human normal bronchial epithelial BEAS-2B cells. The test is described as follows: MTS cytotoxicity assay, normal BEAS-2B. It counts as cell-based. The method, then: as §1, §2
Test [17] relates to human prostate cancer PC-3 cells. Briefly: MTS cytotoxicity assay, PC-3. The format is cell-based. The conditions noted are these: Table 1, PC-3. The protocol: as §1, §2
Test [18] has as its system SPC-A-1, NCI-H520, A549 and A549/Taxol cell lines. The test is described as follows: MTS cytotoxicity assay, four tested lung cancer cell lines together. The format is cell-based, human. The protocol: Thus, the next bioactivity-guided separations were conducted according to the cytotoxicities of the fractions against lung cancer cell lines (A-549, NCI-H520, and SPC-A-1), as well as normal BEAS-2B cells and paclitaxel-resistant lung cancer A549/Taxol cells.
Isolates 1–6 were evaluated for their cytotoxicities against SPC-A-1, NCI-H520, A549, A549/Taxol, and BEAS-2B cell lines (Table 5).
as §2

Setting [19] is: Table 5, NCI-H520, read-out: IC50.
The mark [20] stands for this setting: Table 5, A549/Taxol, read-out: IC50.
The mark [21] stands for this setting: Table 5, SPC-A-1, read-out: IC50.
Where [22] appears, read: Homo sapiens, NCI-H520, Table 5, NCI-H520, read-out: IC50.
Setting [23] is: Homo sapiens, A549/Taxol, Table 5, A549/Taxol, read-out: IC50.
[24] abbreviates: Homo sapiens, A549, Table 5, A549, read-out: IC50.
[25] abbreviates: Homo sapiens, SPCA1, Table 5, SPC-A-1, read-out: IC50.
Where [26] appears, read: Homo sapiens, Table 5, BEAS-2B normal cells, read-out: IC50.

`N.N.[Cl][Pt][Cl]` [Cisplatin]: the IC50 in test [1] is 2.00 ± 0.52 µg/mL; in test [2], 3.67 ± 0.97 µg/mL; in test [3], 5.29 ± 0.48 µg/mL; in test [4], 0.16 ± 0.01 µg/mL; in test [5] it was 3.16 ± 0.97 µg/mL; in test [6], 2.00 ± 0.93 µg/mL. For the same compound, the IC50 in test [7] (Table 1, NCI-H520) amounted to 6.69 ± 1.46 µg/mL; in test [7] (Table 2, NCI-H520) it was 3.12 ± 0.18 µg/mL; in test [7] (Table 3, NCI-H520) it was 3.75 ± 0.52 µg/mL; in [7] (Table 4, NCI-H520), 3.11 ± 0.22 µg/mL; in test [7] (setting [19]) it was 12 ± 0.6 µM; in [8], 1.97 ± 1.30 µg/mL. Moreover, the half-maximal inhibitory concentration (IC50) in test [9] (Table 2, A549/Taxol) came to 4.29 ± 0.26 µg/mL; in test [9] (Table 3, A549/Taxol) it was 3.41 ± 0.47 µg/mL; in test [9] (Table 4, A549/Taxol), 4.13 ± 0.86 µg/mL; in test [9] (setting [20]), 15 ± 0.93 µM; in test [10], 3.78 ± 0.79 µg/mL; in [11] it was 2.85 ± 0.272 µg/mL. Moreover, the 50% inhibitory concentration (IC50) in test [12] (Table 1, A549) was 3.83 ± 0.79 µg/mL; in test [12] (Table 2, A-549), 4.99 ± 0.08 µg/mL; in [12] (Table 3, A549), 3.02 ± 0.59 µg/mL; in test [12] (Table 4, A549), 2.28 ± 0.57 µg/mL; in test [12] (Table 5, A549, read-out: IC50), 13.5 ± 0.64 µM; in test [13], 1.53 ± 0.11 µg/mL. Besides, the IC50 is 1.76 ± 0.40 µg/mL in test [14] (Table 1, SPC-A-1); 3.10 ± 0.13 µg/mL in [14] (Table 2, SPC-A-1); 3.06 ± 1.07 µg/mL in test [14] (Table 3, SPC-A-1); 2.49 ± 0.07 µg/mL in test [14] (Table 4, SPC-A-1); 21.4 ± 0.35 µM in [14] (setting [21]); 1.14 ± 0.152 µg/mL in test [15]. Also, the IC50 in [16] (Table 1, BEAS-2B normal cells) is 9.14 ± 1.41 µg/mL; in [16] (Table 2, BEAS-2B normal cells) it was 7.36 ± 0.56 µg/mL; in test [16] (Table 3, BEAS-2B normal cells), > 12 µg/mL; in test [16] (Table 4, BEAS-2B normal cells), 8.86 ± 1.32 µg/mL; in [16] (Table 5, BEAS-2B normal cells, read-out: IC50), 34.9 ± 1.16 µM; in [17], 1.38 ± 0.23 µg/mL.
For the compound `CC(=O)OC(C)(C)C=CC(=O)C(C)(O)C1C(O)CC2(C)C3CC=C4C(CC(=O)OC4(C)C)C3(C)C(=O)CC12C` (centres unmarked) [Compound 1, aquilarolide A], the IC50 in [7] (setting [22]) amounted to 0.16 ± 0.01 µM; in [9] (setting [23]) it was 0.2 ± 0.01 µM; in [12] (setting [24]), 0.35 ± 0.06 µM; in test [14] (setting [25]) it was 0.56 ± 0.02 µM; in [16] (setting [26]) it was 17.9 ± 0.3 µM.
For the compound `CC(=O)OC(C)(C)CCC(=O)[C@](C)(O)[C@H]1[C@H](O)C[C@@]2(C)[C@@H]3CC=C4[C@@H](C=C(O)C(=O)C4(C)C)[C@]3(C)C(=O)C[C@]12C` [Compound 2, 23,24-dihydrocucurbitacin E], the half-maximal inhibitory concentration (IC50) was > 40 µM in test [7] (setting [22]); > 40 µM in test [9] (setting [23]); “inactive” in test [18] (four tested cancer cell lines taken together (SPC-A-1, NCI-H520, A549, A549/Taxol)); > 40 µM in test [12] (setting [24]); > 40 µM in test [14] (setting [25]); > 40 µM in [16] (setting [26]).
On to `CC(=O)OC(C)(C)/C=C/C(=O)[C@](C)(O)[C@H]1[C@H](O)C[C@@]2(C)[C@@H]3CC=C4[C@@H](C=C(O)C(=O)C4(C)C)[C@]3(C)C(=O)C[C@]12C` [Compound 3, cucurbitacin E], for which the IC50 in test [7] (Table 5, NCI-H520, listed as Cucurbitacin E, read-out: IC50) was ≤ 0.02 µM; in test [7] (setting [19]), 0.001 µM; in test [9] (Table 5, A549/Taxol, listed as Cucurbitacin E, read-out: IC50) it was ≤ 0.02 µM; in test [9] (setting [20]), 0.002 µM; in [18] (Homo sapiens), ≤ 0.03 µM; in test [12] (setting [24]) it was ≤ 0.02 µM. For the same compound, the IC50 in [12] (Table 5, A549, read-out: IC50) was 0.02 µM; in [14] (Table 5, SPC-A-1, listed as Cucurbitacin E, read-out: IC50), ≤ 0.02 µM; in [14] (setting [21]), 0.005 µM; in test [16] (setting [26]), 3.46 ± 0.13 µM.
Consider `COc1cc(O)c2c(c1)O[C@H](c1ccc(O)cc1)CC2=O` [Compound 5, (−)-(2S)-5,4ʹ-dihydroxy-7-methoxyflavanone], for which the IC50 in test [7] (Homo sapiens, Table 5, NCI-H520, read-out: IC50) was > 40 µM; in test [9] (setting [23]) it was > 40 µM; in test [12] (Homo sapiens, Table 5, A549, read-out: IC50) it was > 40 µM; in [14] (setting [25]) it was > 40 µM; in [16] (Homo sapiens, BEAS-2B, Table 5, BEAS-2B normal cells, read-out: IC50) it was > 40 µM.

In general, IC50 refers to the concentration that gives 50% inhibition.
